Experiments:
[1] = target: Adenosine A2A receptor (Tag-lite Adenosine A2A labeled cells) (Homo sapiens (Human), UniProt P29274); experiment: A2A Tag-lite HTRF assay (fluorescent ligand displacement); settings: Red antagonist fluorescent ligand 12.5 nM, one-site competitive binding model, read-out: A2A_Ki
Text: Example C. A2A Tag-Lite® HTRF Assay
The final concentration of DMSO was 1%.

[2] = target: human adenosine A2B receptor (Homo sapiens (Human), UniProt P29275); experiment: Adenosine A2B Receptor Cyclic AMP GS Assay; type: cell-based; settings: HEK-293 cells expressing human A2B; agonist NECA 12 nM; cAMP accumulation by FRET; read-out: A2B_cAMP_EC50
Chain of human adenosine A2B receptor (P29275 whole entry): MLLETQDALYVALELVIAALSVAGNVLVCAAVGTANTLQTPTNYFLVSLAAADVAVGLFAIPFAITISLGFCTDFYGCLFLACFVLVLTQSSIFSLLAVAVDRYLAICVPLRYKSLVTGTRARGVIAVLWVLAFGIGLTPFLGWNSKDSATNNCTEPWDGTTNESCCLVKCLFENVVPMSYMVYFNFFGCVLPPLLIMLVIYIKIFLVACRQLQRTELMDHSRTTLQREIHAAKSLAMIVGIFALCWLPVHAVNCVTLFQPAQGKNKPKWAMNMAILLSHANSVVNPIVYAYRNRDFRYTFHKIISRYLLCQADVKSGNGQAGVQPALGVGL
Protocol: Example B. Adenosine A2B Receptor Cyclic AMP GS Assay Stably transfected HEK-293 cells expressing the human adenosine A2B receptor (Perkin Elmer) were maintained in MEM culture medium with 10% FBS and 100 μg/ml Geneticin (Life Technologies). 18 to 24 hours prior to assay, geneticin was removed from culture. The cisbio cAMP-GS Dynamic kit utilizing the FRET (Fluorescence Resonance Energy Transfer) technology was used to measure cAMP accumulation in the cells. Compounds of the present disclosure at an appropriate concentration were mixed with 10000 cells/well in white 96 well half area plates (Perkin Elmer) for 30 min at room temperature gently shaking. Agonist, NECA (R&D Technologies) at 12 nM was added to each well for 60 min at room temperature gently shaking. Detection reagents, d2-labeled cAMP (acceptor) and anti-cAMP cryptate (donor) were added to each well for 60 min at RT gently shaking. Plates were read on Pherastar (BMG Labtech), fluorescence ratio 665/620 was calculated and EC50 determination was performed by fitting the curve of percent of control versus the log of the compound concentration using GraphPad Prism.

Chain of Adenosine A2A receptor (Tag-lite Adenosine A2A labeled cells) (P29274 whole entry): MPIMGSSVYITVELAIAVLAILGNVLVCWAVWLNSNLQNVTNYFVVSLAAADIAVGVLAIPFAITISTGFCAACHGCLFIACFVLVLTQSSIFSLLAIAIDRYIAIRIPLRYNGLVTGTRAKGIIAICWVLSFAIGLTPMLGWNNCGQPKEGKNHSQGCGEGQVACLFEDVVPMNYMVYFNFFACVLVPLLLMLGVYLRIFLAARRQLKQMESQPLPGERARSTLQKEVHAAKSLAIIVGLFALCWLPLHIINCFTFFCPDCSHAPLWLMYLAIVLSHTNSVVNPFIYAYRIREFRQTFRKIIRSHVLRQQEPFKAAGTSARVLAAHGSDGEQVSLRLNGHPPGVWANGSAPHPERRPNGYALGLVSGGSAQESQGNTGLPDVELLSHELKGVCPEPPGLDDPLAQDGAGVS

## CCCCCn1c2cc(-c3cnn(C4CN(c5nccc(C#N)n5)C4)c3)[nH]c2c(=O)n2c(C)nnc12 [Example 20, 2-(3-(4-(3-Methyl-5-oxo-9-pentyl-6,9-dihydro-5H-pyrrolo[3,2-d][1,2,4]triazolo[4,3-a]pyrimidin-7-yl)-1H-pyrazol-1-yl)azetidin-1-yl)pyrimidine-4-carbonitrile]
[1]
  Ki: < 10 nM
[2]
  EC50: 10 to 100 nM

## CCCCCn1c2cc(-c3cnn(C4CN(c5ncccn5)C4)c3)[nH]c2c(=O)n2c(C)nnc12 [Example 19, 3-Methyl-9-pentyl-7-(1-(1-(pyrimidin-2-yl)azetidin-3-yl)-1H-pyrazol-4-yl)-6,9-dihydro-5H-pyrrolo[3,2-d][1,2,4]triazolo[4,3-a]pyrimidin-5-one]
[1]
  Ki: < 10 nM
[2]
  EC50: 10 to 100 nM

## CCCCCn1c2cc(-c3cnn(Cc4cncc(F)c4)c3)[nH]c2c(=O)n2c(C)nnc12 [Example 9, 7-(1-((5-Fluoropyridin-3-yl)methyl)-1H-pyrazol-4-yl)-3-methyl-9-pentyl-6,9-dihydro-5H-pyrrolo[3,2-d][1,2,4]triazolo[4,3-a]pyrimidin-5-one]
[1]
  Ki: < 10 nM
[2]
  EC50: 10 to 100 nM

## CCCCCn1c2cc(-c3cnn(Cc4cncc(Cl)c4)c3)[nH]c2c(=O)n2c(C)nnc12 [Example 2, 7-(1-((5-Chloropyridin-3-yl)methyl)-1H-pyrazol-4-yl)-3-methyl-9-pentyl-6,9-dihydro-5H-pyrrolo[3,2-d][1,2,4]triazolo[4,3-a]pyrimidin-5-one]
[1]
  Ki: < 10 nM
[2]
  EC50: 10 to 100 nM

Reference: US11220510B2, “Pyrrole tricyclic compounds as A2A / A2B inhibitors” (Incyte Corporation, priority 2018, dated 2022)
